Laboratory results as given in patent US6964870B2, “Enhanced selection of genetically modified pine embryogenic tissue” (MeadWestvaco Corporation, priority 2000, dated 2005).

What was measured:
Format in all cases: cell-based
[1] = test system: embryogenic lines of crosses with P. taeda selection 7-56; test: Recovery of transformants from elite crosses with ABA in selection media (Agrobacterium and bombardment experiments)
[2] = test system: P. rigida Hybrid embryogenic cell line H1; test: Agrobacterium transformation, transformants per selection plate with ABA in preparation/recovery/selection media
Text: (§1) Seven loblolly pine cell lines or hybrid cell lines from seven widely diverse genetic backgrounds were used in this experiment. To prepare for gene transfer using Agrobacterium, fabric supports were sterilized by autoclaving and placed in a sterile Buchner funnel, and one to five milliliters of embryogenic suspension was pipetted onto each support such that the embryogenic tissue was evenly distributed over its surface. Following this the liquid medium was suctioned from the tissues and each support bearing the embryogenic tissue was placed on gelled medium for inoculation by Agrobacterium. In this case the medium used was the same as the preparation medium described in Example 1 above, except that the medium, used here for preparation and co-cultivation of the cells, contained ABA at 0, 10, or 30 mg/L as an experimental condition. Genes were then introduced into the plant material by co-cultivation with Agrobacterium(Wenck et al. 1999). Specifically, gene constructs containing a reporter gene and a selectable marker were introduced into Agrobacterium tumefaciens strain EHA105 with the virulence-enhancing plasmid pTOK47 (Wenck et al. 1999), by techniques well known to those skilled in the art, and virulence was then induced with administration of acetosyringone by commonly used techniques, well known to those skilled in the art, whereupon the induced Agrobacterium was dripped over the plant material and these were co-cultivated in the dark at 23°±2° C. for approximately 24-72 hours. Those skilled in the art recognize that many different gene constructs, plasmids, strains, media, and co-cultivation times and protocols would be suitable for use in the present method.
(§2) Following co-cultivation, cells were re-suspended into fresh DCR4 liquid wash medium (Table 2) containing eradicants such as 200-400 mg/L TIMENTIN® antibiotic. The DCR4 liquid wash medium was contained in sterile “baby food” jars with MAGENTA® aerated lids, conventional beakers, or multi-well plates. Resuspension was initiated by grasping the membrane support bearing the infected cells, using forceps, and rolling or folding it so that it could be taken up and placed into the liquid in the wash container. The liquid was then agitated to get the cells into suspension, and the membrane support was scraped with sterile forceps if cells appeared to be adhering to it. Once the cells were in suspension, the membrane was removed with sterile forceps.
(§3) Following this wash step, the cells were plated onto fresh sterile support membranes of the same type as used in the previous step, again by placing the fresh sterile support membranes in a sterile Buchner funnel, pipetting the suspension of plant cells onto the membranes, and again suctioning the liquid medium from the tissues using a mild vacuum. The cells were again resuspended in and cultured in fresh sterile wash medium by agitating the membrane bearing the cells in the liquid, again removing cells that appeared to be adhering by gently scraping with forceps. The cells were then re-plated on fresh membrane supports over Buchner funnels. This procedure was repeated twice before the cells were again plated on supports as described above.
(§4) Supports bearing approximately 0.1 g of embryogenic tissue were divided onto recovery media (having the same formulation as the maintenance medium except for the addition of 400 mg/L TIMENTIN® antibiotic) either containing or lacking ABA. […] Concentrations of ABA used in all these media were 0, 10, and 30 mg/l.
(§5) Cells were maintained on the selection media, with transfer of the polyester support membranes to fresh selection media of the same composition, every two weeks for a total of eight weeks of selection. Cells from actively growing sublines from selection were examined using stereomicroscopes for the expression of the visual marker gene uidA at the conclusion of the selection period. […]

[3] = test system: P. taeda embryogenic cell line P6; test: as above
Text: as §1, §2, §3, §4, §5

[4] = test system: P. taeda embryogenic cell line P1; test: as above
Text: as §1, §2, §3, §4, §5

[5] = test system: P. taeda embryogenic cell line P4; test: as above
Text: as §1, §2, §3, §4, §5

[6] = test system: cell lines that are progeny of the elite P. taeda line 7-56; test: Biolistic transformation, ABA in recovery and selection media (Example 2)
Procedure: Loblolly pine cell lines were used which had been grown and maintained as described in Example 1 above, and prepared for biolistic transformation as described in Example 1 above. In this example, only cell lines that are progeny of the elite P. taeda line 7-56 were used. Following bombardment the support membranes bearing the bombarded embryogenic cells were transferred to DCR2 maintenance media, either with or without the addition of 10 mg/l ABA for one week. Following this the support membranes bearing the bombarded embryogenic cells were placed on plates containing gelled DCR selection medium with 10 mg/l abscisic acid (ABA), and cultured for three days, so that all cells were exposed to 10 mg/l ABA in the selection medium for the first three days of selection. Following this the support membranes bearing the bombarded embryogenic cells were evenly divided among gelled media containing 5, 10, or 20 mg/l ABA for a period of two weeks. Following this, the support membranes bearing the bombarded embryogenic cells were evenly divided among gelled media containing 0, 5, 10, or 20 mg/l ABA for the remaining selection period, and transferred every three weeks to fresh selection media of the same composition.
The cells were also checked for the presence of sequences by PCR amplification using primers specific for both the uidA and nptII transgenes, techniques well known to those skilled in the art of plant transformation.

[7] = ABA mg/l in preparation/recovery/selection medium 0/0/10
[8] = ABA mg/l in preparation/recovery/selection medium 0/0/30
[9] = ABA mg/l in preparation/recovery/selection medium 0/10/10
[10] = ABA mg/l in preparation/recovery/selection medium 0/10/30
[11] = ABA mg/l in preparation/recovery/selection medium 0/30/30
[12] = ABA mg/l in preparation/recovery/selection medium 10/10/10
[13] = ABA mg/l in preparation/recovery/selection medium 30/10/10
[14] = ABA mg/l in preparation/recovery/selection medium 30/30/30

SMILES: CC1=CC(=O)CC(C)(C)[C@@]1(O)/C=C/C(C)=C\C(=O)O [ABA, abscisic acid]
- lines attempted from which transformants recovered ([1]; cross 7-56×9-6, ABA in the selection media): more than 80%
- lines attempted from which transformants recovered ([1]; crosses with elite P. taeda selection 7-56 as a parent, ABA in selection media, media containing 5-30 mg/L ABA): more than 80%
- Average (n = 12) Number of Transformants observed per Selection Plate [2, 7]: 27.0 +/− 11.2
- Average (n = 12) Number of Transformants observed per Selection Plate [2, 8]: 21.1 +/− 6.5
- Average (n = 12) Number of Transformants observed per Selection Plate [2, 9]: 19.0 +/− 6.5
- Average (n = 12) Number of Transformants observed per Selection Plate [2, 10]: 21.6 +/− 8.6
- Average (n = 12) Number of Transformants observed per Selection Plate [2, 11]: 15.1 +/− 4.9
- Average (n = 12) Number of Transformants observed per Selection Plate [2, 12]: 21.9 +/− 8.4
- Average (n = 12) Number of Transformants observed per Selection Plate [2, 13]: 22.9 +/− 10.1
- Average (n = 12) Number of Transformants observed per Selection Plate [2, 14]: 21.8 +/− 9.9
- Average (n = 12) Number of Transformants observed per Selection Plate [3, 7]: 3.9 +/− 1.5
- Average (n = 12) Number of Transformants observed per Selection Plate [3, 8]: 3.3 +/− 2.8
- Average (n = 12) Number of Transformants observed per Selection Plate [3, 9]: 3.2 +/− 1.4
- Average (n = 12) Number of Transformants observed per Selection Plate [3, 10]: 3.2 +/− 1.5
- Average (n = 12) Number of Transformants observed per Selection Plate [3, 11]: 2.3 +/− 2.6
- Average (n = 12) Number of Transformants observed per Selection Plate [3, 12]: 4.5 +/− 1.3
- Average (n = 12) Number of Transformants observed per Selection Plate [3, 13]: 3.1 +/− 2.3
- Average (n = 12) Number of Transformants observed per Selection Plate [3, 14]: 2.3 +/− 1.1
- Average (n = 12) Number of Transformants observed per Selection Plate [4, 7]: 0.3 +/− 0.9
- Average (n = 12) Number of Transformants observed per Selection Plate [4, 8]: 0.0 +/− 0.0
- Average (n = 12) Number of Transformants observed per Selection Plate [4, 9]: 0.0 +/− 0.0
- Average (n = 12) Number of Transformants observed per Selection Plate [4, 10]: 0.1 +/− 0.3
- Average (n = 12) Number of Transformants observed per Selection Plate [4, 11]: 0.8 +/− 0.6
- Average (n = 12) Number of Transformants observed per Selection Plate [4, 12]: 1.3 +/− 0.9
- Average (n = 12) Number of Transformants observed per Selection Plate [4, 13]: 0.3 +/− 0.5
- Average (n = 12) Number of Transformants observed per Selection Plate [4, 14]: 0.4 +/− 0.8
- Average (n = 12) Number of Transformants observed per Selection Plate [5, 7]: 27.5 +/− 11.4
- Average (n = 12) Number of Transformants observed per Selection Plate [5, 8]: 34.9 +/− 9.7
- Average (n = 12) Number of Transformants observed per Selection Plate [5, 9]: 28.8 +/− 11.6
- Average (n = 12) Number of Transformants observed per Selection Plate [5, 10]: 30.9 +/− 9.3
- Average (n = 12) Number of Transformants observed per Selection Plate [5, 11]: 28.6 +/− 7.6
- Average (n = 12) Number of Transformants observed per Selection Plate [5, 12]: 27.8 +/− 9.0
- Average (n = 12) Number of Transformants observed per Selection Plate [5, 13]: 22.7 +/− 7.0
- Average (n = 12) Number of Transformants observed per Selection Plate [5, 14]: 27.3 +/− 7.4
- number of transformants detected ([6]; 10 mg/L ABA in the recovery media): did not significantly increase the number of transformants detected
- transformants recovered after ten weeks of selection ([6]; 5, 10, or 20 mg/l ABA present for the latter 9 weeks of selection): Transformants were recovered
- transformants recovered after ten weeks of selection ([6]; ABA concentration increased to 20 mg/l after the first transfer on selection media): the largest number of transformants were recovered
